Literature values in patent US20240408115A1, “COMPOSITION AND METHODS OF TREATMENT USING […] - ENHANCED SUPPLEMENTATION” (Xygenyx Inc., priority 2023, published 2024).
Non-standard residues stand in square brackets, D forms with d. Residues, ends and D or L forms follow the SMILES beside them. Cit = NC(=O)NCCC[C@H](N)C(=O)O

Assays:
[1] = penetration enhancer for transdermal drugs
[2] = test system: wide dynamic range neurons in the ventroposterolateral nucleus of the thalamus; conditions: in vivo
[3] = in vivo
[4] = topical formulations, within four weeks of treatment
[5] = topical, concentrations 0.5-5%
[6] = test system: F2-isoprostane; conditions: large doses of 1600-3200 IU/day
[7] = dietary supplementation, doses up to 400 IU/day
[8] = compared to α-tocopherol = 1.0
[9] = dietary intake in equal portions
[10] = in vivo; remark: listed apart in the source

CC(C)[C@@H]1CC[C@@H](C)C[C@H]1O [Menthol]
increase of transdermal drug uptake (factor) [1]: ≥ 10

CCCCCc1cc(O)c2c(c1)OC(C)(C)C1CCC(C)=CC21 (stereo not drawn) [THC, Δ-9-tetrahydrocannabinol]
potency in mediating pain relative to morphine [2]: ten times more powerful than morphine

CCNC(=O)CC[C@H](N)C(=O)O [Theanine]
dose considered safe and well-tolerated [3]: up to 400 mg per day

CC[C@H](C)[C@H](NC(=O)[C@H](CC(=O)O)NC(=O)[C@@H](N)CCCCN)C(=O)N[C@@H](CCCNC(N)=O)C(N)=O [Tripeptide-10 citrulline] (H-KDI[Cit]-NH2)
improvement of suppleness [4]: ≤ 54%

C=CCCCCCCCCC(=O)N[C@@H](Cc1ccccc1)C(=O)O [UP, Undecylenoyl phenylalanine]
time to skin lightening effects [5]: ≥ 7 days

CC12CCC(CC1)C(C)(C)O2 [eucalyptol, 1,8-epoxy-p-menthane]
increase of transdermal drug uptake (factor) [1]: more than 10

Cc1c(C)c2c(c(C)c1O)CC[C@@](C)(CCC[C@H](C)CCC[C@H](C)CCCC(C)C)O2 [α-tocopherol]
blood plasma concentration of F2-isoprostane [6]: significantly lower
reduction of risk of coronary disease [7]: up to 34%
reduction of risk of developing neurodegenerative diseases such as Alzheimer's Syndrome or dementia ([7]; controlled trials): ≤ 24%
relative biological activity [8]: 1.0

Cc1cc(O)c(C)c2c1O[C@](C)(CCC[C@H](C)CCC[C@H](C)CCCC(C)C)CC2 [β-tocopherol]
relative biological activity [8]: 0.5

Cc1c(O)cc2c(c1C)O[C@](C)(CCC[C@H](C)CCC[C@H](C)CCCC(C)C)CC2 [γ-tocopherol]
relative biological activity [8]: 0.1
concentration in vivo relative to α-tocopherol [9]: roughly 10%

Cc1cc(O)cc2c1O[C@](C)(CCC[C@H](C)CCC[C@H](C)CCCC(C)C)CC2 [δ-tocopherol]
relative biological activity [8]: 0.03

HGH: hormone comprising a peptide chain that is synthesized in the pituitary gland
biological half-life [10]: 10-20 minutes
